Among the data in ChEMBL document CHEMBL1151202, “New imidazole alkaloids from the Indonesian sponge Leucetta chagosensis” (J Nat Prod, 2004) are Activity and zone of inhibition values, retold here.

Each structure is given as a SMILES string. Calls of active or inactive are those of the source. No cut-off for these calls is given here.

The test system of one data set is Artemia salina. The experiment in a line: Toxicity in Artemia salina at 20 ug/mL. In kind it is organism-based. Particulars: in vivo.
A further data set deals with Cladosporium herbarum. The experiment in a line: Antifungal activity against Cladosporium herbarum DSM 63422 at 20 ug/disk after 24 hrs by agar plate diffusion assay. In kind it is functional.
For another data set, the system named is L5178Y. The experiment in a line: Cytotoxicity against mouse L5178Y cells at 10 ug/mL by MTT assay relative to control. In kind it is functional. For orientation: Tetrazolium assays rely on reduction of a dye to a coloured formazan, in cell work by metabolically active cells.
For another data set, the system named is HeLa. Nature of the data set: Cytotoxicity against human HeLa cells at 10 ug/mL by MTT assay relative to control. The data set is classed as functional.
Another data set has as its system PC-12. Nature of the data set: Cytotoxicity against rat PC12 cells by MTT assay. The data set is classed as functional, cell-based.

The molecule `COc1ccc(-c2c3cc(O)c(OC)cc3cc3c2[nH]c(=N)n3C)cc1` [KEALIININE A] showed an Activity with Artemia salina of 50%. In the data set with Cladosporium herbarum, the result was inactive.
For `COc1ccc(Cc2[nH]c(=N)n(C)c2Cc2cc(OC)c(O)c(OC)c2)cc1` [NAAMINE G], the Activity is given as 46% in the data set on L5178Y, 29% with HeLa and 10% in the data set with Artemia salina. Moreover, the zone of inhibition at 20 µg/disc with Cladosporium herbarum (DSM 63422, 24 h, read-out: IZ) is 20 mm. Besides, the result with PC-12 was inactive.
